Experimental data from ChEMBL document CHEMBL4507278 (2021).

Experiments:
[1] = tested on: Tyrosine-protein kinase ABL1 (Homo sapiens), P00519 [H396P]; settings: Compound concentration 1000.0 nM
[2] = tested on: Tyrosine-protein kinase ABL1 (Homo sapiens), P00519 [T315I]; settings: Compound concentration 1000.0 nM
[3] = target: Tyrosine-protein kinase ABL1 (Homo sapiens) (UniProt P00519); settings: Compound concentration 1000.0 nM
[4] = target: Tyrosine-protein kinase ABL2 (Homo sapiens) (UniProt P42684); settings: Compound concentration 1000.0 nM
[5] = target: Activin receptor type-1 (Homo sapiens) (UniProt Q04771); settings: Compound concentration 1000.0 nM
[6] = target: Activin receptor type-1B (Homo sapiens) (UniProt P36896); settings: Compound concentration 1000.0 nM
[7] = target: RAC-alpha serine/threonine-protein kinase (Homo sapiens) (UniProt P31749); settings: Compound concentration 1000.0 nM
[8] = target: Aurora kinase A (Homo sapiens) (UniProt O14965); settings: Compound concentration 1000.0 nM
Aurora kinase A (Homo sapiens), sequence (O14965 whole entry): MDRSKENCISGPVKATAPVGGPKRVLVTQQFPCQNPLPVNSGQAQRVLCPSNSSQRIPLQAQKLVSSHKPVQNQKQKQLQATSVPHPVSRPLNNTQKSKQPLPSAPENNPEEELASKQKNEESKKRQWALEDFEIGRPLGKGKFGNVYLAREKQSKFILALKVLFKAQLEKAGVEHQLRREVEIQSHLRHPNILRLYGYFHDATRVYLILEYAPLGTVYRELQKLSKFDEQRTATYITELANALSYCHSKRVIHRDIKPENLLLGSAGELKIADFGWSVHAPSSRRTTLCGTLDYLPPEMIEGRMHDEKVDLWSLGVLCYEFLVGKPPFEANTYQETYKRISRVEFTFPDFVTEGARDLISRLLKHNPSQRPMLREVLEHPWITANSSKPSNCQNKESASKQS

[9] = target: Tyrosine-protein kinase Blk (Homo sapiens) (UniProt P51451); settings: Compound concentration 1000.0 nM
[10] = target: Protein-tyrosine kinase 6 (Homo sapiens) (UniProt Q13882); settings: Compound concentration 1000.0 nM
[11] = target: Calcium/calmodulin-dependent protein kinase type II subunit alpha (Homo sapiens) (UniProt Q9UQM7); settings: Compound concentration 1000.0 nM
[12] = target: Cyclin-dependent kinase-like 1 (Homo sapiens) (UniProt Q00532); settings: Compound concentration 1000.0 nM
Cyclin-dependent kinase-like 1 (Homo sapiens), sequence (Q00532 whole entry): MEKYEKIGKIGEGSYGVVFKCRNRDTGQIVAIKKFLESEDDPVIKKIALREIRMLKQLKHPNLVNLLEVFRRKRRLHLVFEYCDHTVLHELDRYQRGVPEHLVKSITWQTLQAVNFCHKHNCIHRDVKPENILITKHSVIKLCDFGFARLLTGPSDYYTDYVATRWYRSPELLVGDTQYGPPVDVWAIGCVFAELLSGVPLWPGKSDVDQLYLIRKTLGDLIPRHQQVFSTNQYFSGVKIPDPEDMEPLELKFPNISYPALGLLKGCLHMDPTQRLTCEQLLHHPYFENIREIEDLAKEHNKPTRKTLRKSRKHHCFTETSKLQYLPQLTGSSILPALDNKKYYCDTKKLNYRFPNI

[13] = target: Macrophage colony-stimulating factor 1 receptor (Homo sapiens) (UniProt P07333); settings: Compound concentration 1000.0 nM
[14] = target: Epidermal growth factor receptor (Homo sapiens) (UniProt P00533); settings: Compound concentration 1000.0 nM
[15] = target: Tyrosine-protein kinase Fer (Homo sapiens) (UniProt P16591); settings: Compound concentration 1000.0 nM
Tyrosine-protein kinase Fer (Homo sapiens), sequence (P16591 whole entry, looked up): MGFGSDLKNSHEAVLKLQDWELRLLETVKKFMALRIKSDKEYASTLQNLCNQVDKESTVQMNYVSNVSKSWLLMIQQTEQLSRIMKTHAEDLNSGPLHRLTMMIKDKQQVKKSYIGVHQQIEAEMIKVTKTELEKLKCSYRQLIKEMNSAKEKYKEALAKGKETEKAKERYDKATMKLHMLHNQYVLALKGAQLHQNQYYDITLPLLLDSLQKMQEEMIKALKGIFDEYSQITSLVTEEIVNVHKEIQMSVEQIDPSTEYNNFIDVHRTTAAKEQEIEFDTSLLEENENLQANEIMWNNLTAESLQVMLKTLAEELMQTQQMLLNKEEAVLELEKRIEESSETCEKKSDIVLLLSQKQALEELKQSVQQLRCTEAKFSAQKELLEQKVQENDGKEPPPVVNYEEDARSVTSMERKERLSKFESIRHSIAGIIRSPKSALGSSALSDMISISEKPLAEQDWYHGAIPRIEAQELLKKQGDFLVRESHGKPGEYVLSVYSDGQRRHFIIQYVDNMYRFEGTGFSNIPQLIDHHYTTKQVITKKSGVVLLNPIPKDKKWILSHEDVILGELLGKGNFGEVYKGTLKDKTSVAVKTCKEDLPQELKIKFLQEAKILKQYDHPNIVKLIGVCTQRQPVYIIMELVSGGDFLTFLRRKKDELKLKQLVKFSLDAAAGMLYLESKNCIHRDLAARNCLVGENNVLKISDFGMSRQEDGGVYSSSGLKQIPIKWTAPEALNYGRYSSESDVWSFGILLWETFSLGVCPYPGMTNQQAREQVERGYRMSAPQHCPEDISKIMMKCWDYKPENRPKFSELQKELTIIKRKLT

[16] = target: Tyrosine-protein kinase Fes/Fps (Homo sapiens) (UniProt P07332); settings: Compound concentration 1000.0 nM
[17] = target: Fibroblast growth factor receptor 1 (Homo sapiens) (UniProt P11362); settings: Compound concentration 1000.0 nM
[18] = target: Glycogen synthase kinase-3 beta (Homo sapiens) (UniProt P49841); settings: Compound concentration 1000.0 nM
[19] = target: Serine/threonine-protein kinase haspin (Homo sapiens) (UniProt Q8TF76); settings: Compound concentration 1000.0 nM
[20] = target: Insulin receptor-related protein (Homo sapiens) (UniProt P14616); settings: Compound concentration 1000.0 nM
[21] = target: Tyrosine-protein kinase JAK1 (Homo sapiens) (UniProt P23458); settings: Compound concentration 1000.0 nM
[22] = tested on: Mast/stem cell growth factor receptor Kit (Homo sapiens), P10721 [L576P]; settings: Compound concentration 1000.0 nM
[23] = target: Serine/threonine-protein kinase 10 (Homo sapiens) (UniProt O94804); settings: Compound concentration 1000.0 nM
[24] = target: Serine/threonine-protein kinase MARK1 (Homo sapiens) (UniProt Q9P0L2); settings: Compound concentration 1000.0 nM
[25] = target: Mitogen-activated protein kinase 12 (Homo sapiens) (UniProt P53778); settings: Compound concentration 1000.0 nM
[26] = target: Serine/threonine-protein kinase PAK 4 (Homo sapiens) (UniProt O96013); settings: Compound concentration 1000.0 nM
[27] = target: Serine/threonine-protein kinase PAK 5 (Homo sapiens) (UniProt Q9P286); settings: Compound concentration 1000.0 nM
[28] = target: Cyclin-dependent kinase 14 (Homo sapiens) (UniProt O94921); settings: Compound concentration 1000.0 nM
[29] = target: 1-phosphatidylinositol 3-phosphate 5-kinase (Homo sapiens) (UniProt Q9Y2I7); settings: Compound concentration 1000.0 nM
[30] = target: Phosphatidylinositol 4-phosphate 5-kinase type-1 alpha (Homo sapiens) (UniProt Q99755); settings: Compound concentration 1000.0 nM
[31] = target: Protein kinase C eta type (Homo sapiens) (UniProt P24723); settings: Compound concentration 1000.0 nM
[32] = target: Serine/threonine-protein kinase D3 (Homo sapiens) (UniProt O94806); settings: Compound concentration 1000.0 nM
[33] = target: Protein-tyrosine kinase 2-beta (Homo sapiens) (UniProt Q14289); settings: Compound concentration 1000.0 nM
Protein-tyrosine kinase 2-beta (Homo sapiens), sequence (Q14289 whole entry, looked up): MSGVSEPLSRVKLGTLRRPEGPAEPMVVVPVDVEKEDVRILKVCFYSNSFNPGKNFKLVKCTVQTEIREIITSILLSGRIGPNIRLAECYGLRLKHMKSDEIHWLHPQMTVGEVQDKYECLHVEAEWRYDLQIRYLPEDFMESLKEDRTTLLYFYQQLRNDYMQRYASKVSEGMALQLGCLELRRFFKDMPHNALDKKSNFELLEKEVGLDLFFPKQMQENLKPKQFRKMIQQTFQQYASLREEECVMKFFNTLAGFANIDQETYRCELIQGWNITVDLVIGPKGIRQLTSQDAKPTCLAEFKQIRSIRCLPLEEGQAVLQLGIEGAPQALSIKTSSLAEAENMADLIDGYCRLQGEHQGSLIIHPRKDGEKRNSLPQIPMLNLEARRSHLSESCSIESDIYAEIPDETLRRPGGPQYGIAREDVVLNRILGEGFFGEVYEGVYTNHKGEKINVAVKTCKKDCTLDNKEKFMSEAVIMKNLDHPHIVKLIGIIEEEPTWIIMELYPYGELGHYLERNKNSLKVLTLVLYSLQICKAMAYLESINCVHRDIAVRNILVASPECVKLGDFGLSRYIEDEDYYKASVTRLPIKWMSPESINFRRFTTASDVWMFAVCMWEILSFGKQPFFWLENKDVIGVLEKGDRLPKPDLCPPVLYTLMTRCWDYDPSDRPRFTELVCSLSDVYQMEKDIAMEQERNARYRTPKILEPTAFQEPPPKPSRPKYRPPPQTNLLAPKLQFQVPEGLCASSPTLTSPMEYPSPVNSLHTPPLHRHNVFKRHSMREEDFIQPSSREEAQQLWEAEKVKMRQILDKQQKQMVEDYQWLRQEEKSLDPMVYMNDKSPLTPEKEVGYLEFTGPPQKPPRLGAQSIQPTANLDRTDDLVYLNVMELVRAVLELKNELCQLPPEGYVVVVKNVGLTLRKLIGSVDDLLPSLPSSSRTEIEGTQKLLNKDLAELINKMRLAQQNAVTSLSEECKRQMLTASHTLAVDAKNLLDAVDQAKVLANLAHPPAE

[34] = target: Ribosomal protein S6 kinase beta-1 (Homo sapiens) (UniProt P23443); settings: Compound concentration 1000.0 nM
[35] = target: Serine/threonine-protein kinase SIK1 (Homo sapiens) (UniProt P57059); settings: Compound concentration 1000.0 nM
Serine/threonine-protein kinase SIK1 (Homo sapiens), sequence (P57059 whole entry): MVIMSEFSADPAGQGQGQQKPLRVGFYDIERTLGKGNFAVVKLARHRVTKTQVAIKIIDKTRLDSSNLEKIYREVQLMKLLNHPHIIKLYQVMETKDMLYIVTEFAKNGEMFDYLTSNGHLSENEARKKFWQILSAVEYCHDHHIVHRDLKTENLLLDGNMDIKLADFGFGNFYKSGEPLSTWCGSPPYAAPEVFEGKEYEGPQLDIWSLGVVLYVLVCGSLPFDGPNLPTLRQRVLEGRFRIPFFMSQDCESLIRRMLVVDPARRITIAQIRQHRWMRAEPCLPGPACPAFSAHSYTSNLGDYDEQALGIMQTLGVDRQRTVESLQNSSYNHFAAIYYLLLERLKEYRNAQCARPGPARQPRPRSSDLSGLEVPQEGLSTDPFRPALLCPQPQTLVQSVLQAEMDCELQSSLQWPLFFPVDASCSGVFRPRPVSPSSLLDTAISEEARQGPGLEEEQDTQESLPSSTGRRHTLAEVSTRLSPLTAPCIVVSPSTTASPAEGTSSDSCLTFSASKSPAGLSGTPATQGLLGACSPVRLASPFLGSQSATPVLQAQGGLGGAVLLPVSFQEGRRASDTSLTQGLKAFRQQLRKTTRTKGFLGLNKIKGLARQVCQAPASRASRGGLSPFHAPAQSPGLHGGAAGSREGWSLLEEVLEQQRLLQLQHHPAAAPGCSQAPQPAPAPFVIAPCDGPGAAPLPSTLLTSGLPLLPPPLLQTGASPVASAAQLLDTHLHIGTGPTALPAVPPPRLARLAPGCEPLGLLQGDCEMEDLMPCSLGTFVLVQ

[36] = target: SRSF protein kinase 3 (Homo sapiens) (UniProt Q9UPE1); settings: Compound concentration 1000.0 nM
SRSF protein kinase 3 (Homo sapiens), sequence (Q9UPE1 whole entry): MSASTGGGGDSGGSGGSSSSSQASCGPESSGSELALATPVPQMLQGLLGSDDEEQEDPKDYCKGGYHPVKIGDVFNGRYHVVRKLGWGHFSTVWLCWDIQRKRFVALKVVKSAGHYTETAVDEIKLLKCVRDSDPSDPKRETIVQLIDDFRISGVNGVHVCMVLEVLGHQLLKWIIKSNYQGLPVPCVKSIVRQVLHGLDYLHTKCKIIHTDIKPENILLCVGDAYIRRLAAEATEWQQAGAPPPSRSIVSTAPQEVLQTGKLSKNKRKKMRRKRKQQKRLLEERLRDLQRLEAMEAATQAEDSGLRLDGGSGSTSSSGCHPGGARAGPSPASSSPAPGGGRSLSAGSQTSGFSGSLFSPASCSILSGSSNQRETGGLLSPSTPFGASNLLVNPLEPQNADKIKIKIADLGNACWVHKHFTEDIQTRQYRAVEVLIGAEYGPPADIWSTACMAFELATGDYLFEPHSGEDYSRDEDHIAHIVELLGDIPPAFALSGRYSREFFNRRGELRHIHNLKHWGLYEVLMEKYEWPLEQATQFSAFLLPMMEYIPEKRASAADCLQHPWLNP

[37] = target: Serine/threonine-protein kinase tousled-like 2 (Homo sapiens) (UniProt Q86UE8); settings: Compound concentration 1000.0 nM
[38] = target: Testis-specific serine/threonine-protein kinase 1 (Homo sapiens) (UniProt Q9BXA7); settings: Compound concentration 1000.0 nM
[39] = target: Tyrosine-protein kinase TXK (Homo sapiens) (UniProt P42681); settings: Compound concentration 1000.0 nM
[40] = target: Vascular endothelial growth factor receptor 2 (Homo sapiens) (UniProt P35968); settings: Compound concentration 1000.0 nM
[41] = target: Tyrosine-protein kinase ZAP-70 (Homo sapiens) (UniProt P43403); settings: Compound concentration 1000.0 nM
Tyrosine-protein kinase ZAP-70 (Homo sapiens), sequence (P43403 whole entry): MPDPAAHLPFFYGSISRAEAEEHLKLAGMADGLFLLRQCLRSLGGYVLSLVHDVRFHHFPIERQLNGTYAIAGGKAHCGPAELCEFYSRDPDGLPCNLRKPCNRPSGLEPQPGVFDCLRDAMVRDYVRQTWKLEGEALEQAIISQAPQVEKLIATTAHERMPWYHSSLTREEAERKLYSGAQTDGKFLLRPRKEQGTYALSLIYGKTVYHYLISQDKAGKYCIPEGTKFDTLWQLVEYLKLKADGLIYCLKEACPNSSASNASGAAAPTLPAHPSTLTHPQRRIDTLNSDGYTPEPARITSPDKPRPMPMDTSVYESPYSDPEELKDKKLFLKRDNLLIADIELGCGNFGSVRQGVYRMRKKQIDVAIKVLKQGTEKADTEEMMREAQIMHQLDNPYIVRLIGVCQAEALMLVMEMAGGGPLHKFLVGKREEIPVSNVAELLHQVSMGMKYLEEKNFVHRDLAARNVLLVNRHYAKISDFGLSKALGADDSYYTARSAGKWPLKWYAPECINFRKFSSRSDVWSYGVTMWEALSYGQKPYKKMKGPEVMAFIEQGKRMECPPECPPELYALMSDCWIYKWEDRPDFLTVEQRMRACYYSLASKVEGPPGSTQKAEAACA

[42] = target: D(1B) dopamine receptor (Homo sapiens) (UniProt P21918); settings: Compound concentration 10.0 uM
D(1B) dopamine receptor (Homo sapiens), sequence (P21918 whole entry): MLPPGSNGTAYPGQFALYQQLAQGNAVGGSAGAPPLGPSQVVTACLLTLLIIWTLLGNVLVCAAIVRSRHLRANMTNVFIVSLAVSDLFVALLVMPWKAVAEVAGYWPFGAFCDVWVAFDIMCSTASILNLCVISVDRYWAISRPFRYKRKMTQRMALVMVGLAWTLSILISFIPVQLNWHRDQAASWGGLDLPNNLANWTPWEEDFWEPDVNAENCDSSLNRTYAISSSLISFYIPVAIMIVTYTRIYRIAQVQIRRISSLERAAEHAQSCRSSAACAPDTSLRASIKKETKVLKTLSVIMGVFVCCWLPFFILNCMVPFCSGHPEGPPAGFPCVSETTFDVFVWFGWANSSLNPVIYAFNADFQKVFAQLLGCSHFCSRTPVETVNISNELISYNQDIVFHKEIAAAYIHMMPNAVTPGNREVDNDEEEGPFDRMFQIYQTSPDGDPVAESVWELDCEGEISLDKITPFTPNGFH

[43] = target: Alpha-1A adrenergic receptor (Homo sapiens) (UniProt P35348); settings: Compound concentration 10.0 uM
[44] = target: GABA-A receptor; anion channel (Rattus norvegicus) (UniProt O09028+P15431+P18506+P18508+P19969+P20236+P23574+P23576+P28471+P28473+P30191+P62813+P63079+P63138+Q91ZM7+Q9ES14); settings: Compound concentration 10.0 uM

CS(=O)(=O)NCC[C@H](NC(=O)c1cncc2c1cnn2-c1ccc(F)cc1)c1ccnc(S(C)(=O)=O)c1 [BI 9307]
inactive: residual activity [1] 100% | residual activity [2] 93% | residual activity [3] 100% | residual activity [4] 93% | residual activity [5] 100% | residual activity [6] 100% | residual activity [7] 100% | residual activity [8] 100% | residual activity [9] 100% | residual activity [10] 96% | residual activity [11] 100% | residual activity [12] 84% | residual activity [13] 100% | residual activity [14] 84% | residual activity [15] 100% | residual activity [16] 100% | residual activity [17] 87% | residual activity [18] 100% | residual activity [19] 100% | residual activity [20] 100% | residual activity [21] 100% | residual activity [22] 100% | residual activity [23] 100% | residual activity [24] 92% | residual activity [25] 100% | residual activity [26] 100% | residual activity [27] 99% | residual activity [28] 100% | residual activity [29] 76% | residual activity [30] 100% | residual activity [31] 80% | residual activity [32] 92% | residual activity [33] 84% | residual activity [34] 86% | residual activity [35] 100% | residual activity [36] 100% | residual activity [37] 100% | residual activity [38] 99% | residual activity [39] 84% | residual activity [40] 100% | residual activity [41] 80% | inhibition [42] 36% | inhibition [43] -3.82% | inhibition [44] 10.4%

CS(=O)(=O)c1cc(C2(NC(=O)c3cncc4c3cnn4-c3ccc(F)cc3)CC2)ccn1 [BI 639667]
inactive: residual activity [1] 100% | residual activity [2] 75% | residual activity [3] 71% | residual activity [4] 95% | residual activity [5] 100% | residual activity [6] 100% | residual activity [7] 100% | residual activity [8] 89% | residual activity [9] 100% | residual activity [10] 80% | residual activity [11] 100% | residual activity [12] 69% | residual activity [13] 100% | residual activity [14] 100% | residual activity [15] 100% | residual activity [16] 100% | residual activity [17] 95% | residual activity [18] 85% | residual activity [19] 90% | residual activity [20] 65% | residual activity [21] 83% | residual activity [22] 100% | residual activity [23] 99% | residual activity [24] 100% | residual activity [25] 100% | residual activity [26] 100% | residual activity [27] 100% | residual activity [28] 100% | residual activity [29] 79% | residual activity [30] 100% | residual activity [31] 100% | residual activity [32] 97% | residual activity [33] 100% | residual activity [34] 100% | residual activity [35] 100% | residual activity [36] 100% | residual activity [37] 100% | residual activity [38] 63% | residual activity [39] 89% | residual activity [40] 77% | residual activity [41] 71% | inhibition [42] -0.37% | inhibition [43] -7.71% | inhibition [44] 3.75%
